Assay results as given in patent US9567380B1, “Microtubule organizing center (MTOC)-inactivating peptides” (THE RESEARCH FOUNDATION FOR THE STATE UNIVERSITY OF NEW YORK, priority 2015, dated 2017).
“Also recorded” adds a separate entry of the source. Ends that are not written are not given here.

Tests used:
[1] = system: human MCF-7 breast cancer cells; assay: Mitotic arrest after live cell peptide transfection (Chariot) of MCF-7 cells; assay type: cell-based
Description: (§1) MCF-7 and MDA-MB-231 (ATCC) cells were maintained in 25 cm^2 tissue culture treated Corning flasks (Sigma-Aldrich) in DMEM complete medium with Glutamax-1 and supplemented with 10% fetal bovine serum. MCF-7 DMEM complete medium was additionally supplemented with 0.01 mg/mL bovine insulin (Sigma-Aldrich). Flasks were maintained at 37° C. in 5% CO2, 95% air, and cells were passaged every 5-7 days using 1 mL TrypLE (Life Technologies).
(§2) For live cell peptide transfection we used the Chariot system (Active Motif) according to the manufacturer's instructions. Cells were seeded into 35 mm tissue culture-treated dishes containing coverslips and grown in complete medium to ˜60% confluency. 1 μg of Kinesin-14 Tail peptide PγTR (GenScript) was diluted in 100 μL 1×PBS on ice. 6 μL of 1/10 PBS-diluted Chariot reagent was further diluted into 100 μL sterile water on ice in a separate tube. Diluted peptide and diluted Chariot were combined and incubated at room temperature for 30 minutes to allow the Chariot-peptide complex to form. Following incubation, media was aspirated from cells, which were then washed once in 1×PBS. The entire 200 μL volume was added to cells in 400 μL serum-free media and gently rocked to ensure even delivery. Plates were returned to 37° C. for 1 hr. Next, DMEM complete growth medium was added to 2 mL without removing the peptide delivery solution (108 μM peptide in 2 mL). Cells were further incubated at 37° C. overnight and fixed after 24 hours.
Human cells were fixed on glass coverslips in −20° C. methanol for 10 minutes, washed with 1×PBS and permeabilized in 0.5% Triton X-100 for 20 minutes. Following further washes, cells were blocked for 30 minutes in 1% bovine serum albumin/knock out serum replacement (BSA/KOSR). For peptide localization to centrosomes, 1 μg/mL of peptide was applied after blocking and before primary antibody application. Antibodies used were primary mouse anti-γ-tubulin monoclonal (1:5,000; Sigma-Aldrich cat. T5326) or primary mouse anti-α-tubulin monoclonal DM1A (1:1,000; Santa Cruz Biotech cat. sc-32293), primary His-tag polyclonal antibody (1:1,000; Cell Signaling cat. 2365), secondary goat anti-mouse Alexa Fluor 488 IgG (1:1,000; Life Technologies cat. A-11001) and secondary goat anti-rabbit Texas Red (1:1,000; Life Technologies cat. T-6391). Antibodies were diluted in 1% BSA/KOSR antibody dilution buffer. […]
(§3) For statistical analysis of phenotypes, n values were chosen as number of cells per strain needed to ensure adequate power to detect significant outcomes. […] For cell cycle arrest by 1 μg transfection of PγTR, 12 fields at 200× were counted. […]

MDA-MB-231 cells = assay: Mitotic arrest after live cell peptide transfection (Chariot) of MDA-MB-231 cells; assay type: cell-based, human
Description: as §1, §2
Human cells were fixed on glass coverslips in −20° C. methanol for 10 minutes, washed with 1×PBS and permeabilized in 0.5% Triton X-100 for 20 minutes. Following further washes, cells were blocked for 30 minutes in 1% bovine serum albumin/knock out serum replacement (BSA/KOSR). […]
as §3

human γ-TuRC = biological target: T1, human γ-TuRC (Homo sapiens, UniProt P23258+Q9BSJ2); assay: In vitro γ-TuRC microtubule nucleation assay; assay type: biochemical; details: whole-cell extract from human breast cancer cells; final peptide concentration 60 nM
T1 construct: All other samples use whole-cell extract from human breast cancer cells; endogenous in cells; host or cells: human breast cancer cells (whole-cell extract)
Description: In vitro microtubule nucleation assays were performed in a total volume of 5 μL. That is, 3 μL for the sample and 2 μL of tubulin at a 1:5 ratio of Rhodamine:unlabeled tubulin (Cytoskeleton, Inc.). Total tubulin concentration was 3.75 μg/μL in 2.5× tubulin working buffer (2.5×BRB80: 200 mM PIPES, 2.5 mM MgCl2, 2.5 mM EGTA at pH 6.8 and 2.5 mM GTP). For whole cell extract nucleation analysis with peptide, 2 μL of whole cell extract was added with 1 μL of peptide at 300 nM for a final peptide concentration of 60 nM. This 3 μL combination was added first followed by tubulin working buffer. For samples with no peptide, the 5 μL final volume was comprised of 3 μL RIPA buffer and 2 μL of whole cell extract. The 5 μL reaction was combined on ice, quickly spun and returned to ice before incubating in a 37° C. water bath for 4 minutes. Sample incubation was staggered at 20 s intervals to allow for pipetting. After 4 minutes, 50 μL of 1% glutaraldehyde fixing solution was added and tubes were incubated at room temperature for 3 minutes. Samples were completed by addition of 1 mL 1×BRB80, inverting multiple times to mix. […] Images of multiple fields were collected and the average microtubule number per field was determined.

[2] = biological target: human γ-TuRC (centrosome MTOC of human breast cancer cells) (human) (UniProt P23258); assay: cell-based or functional assay
human γ-TuRC (centrosome MTOC of human breast cancer cells) (human), sequence (P23258 whole entry, chain 1 of 2): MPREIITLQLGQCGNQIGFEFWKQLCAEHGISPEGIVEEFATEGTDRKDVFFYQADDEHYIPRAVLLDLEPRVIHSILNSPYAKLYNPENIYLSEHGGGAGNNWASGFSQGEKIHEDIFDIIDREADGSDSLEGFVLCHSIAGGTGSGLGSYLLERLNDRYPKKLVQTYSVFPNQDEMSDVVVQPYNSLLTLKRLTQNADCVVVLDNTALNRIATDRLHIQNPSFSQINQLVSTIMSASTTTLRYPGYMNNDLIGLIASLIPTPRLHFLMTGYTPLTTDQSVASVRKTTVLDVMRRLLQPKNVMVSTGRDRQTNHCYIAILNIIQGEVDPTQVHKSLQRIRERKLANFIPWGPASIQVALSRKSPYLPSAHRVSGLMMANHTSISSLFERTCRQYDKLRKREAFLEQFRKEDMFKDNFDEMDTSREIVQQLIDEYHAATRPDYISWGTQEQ
human γ-TuRC (centrosome MTOC of human breast cancer cells) (human), sequence (Q9BSJ2 whole entry, chain 2 of 2, further chain): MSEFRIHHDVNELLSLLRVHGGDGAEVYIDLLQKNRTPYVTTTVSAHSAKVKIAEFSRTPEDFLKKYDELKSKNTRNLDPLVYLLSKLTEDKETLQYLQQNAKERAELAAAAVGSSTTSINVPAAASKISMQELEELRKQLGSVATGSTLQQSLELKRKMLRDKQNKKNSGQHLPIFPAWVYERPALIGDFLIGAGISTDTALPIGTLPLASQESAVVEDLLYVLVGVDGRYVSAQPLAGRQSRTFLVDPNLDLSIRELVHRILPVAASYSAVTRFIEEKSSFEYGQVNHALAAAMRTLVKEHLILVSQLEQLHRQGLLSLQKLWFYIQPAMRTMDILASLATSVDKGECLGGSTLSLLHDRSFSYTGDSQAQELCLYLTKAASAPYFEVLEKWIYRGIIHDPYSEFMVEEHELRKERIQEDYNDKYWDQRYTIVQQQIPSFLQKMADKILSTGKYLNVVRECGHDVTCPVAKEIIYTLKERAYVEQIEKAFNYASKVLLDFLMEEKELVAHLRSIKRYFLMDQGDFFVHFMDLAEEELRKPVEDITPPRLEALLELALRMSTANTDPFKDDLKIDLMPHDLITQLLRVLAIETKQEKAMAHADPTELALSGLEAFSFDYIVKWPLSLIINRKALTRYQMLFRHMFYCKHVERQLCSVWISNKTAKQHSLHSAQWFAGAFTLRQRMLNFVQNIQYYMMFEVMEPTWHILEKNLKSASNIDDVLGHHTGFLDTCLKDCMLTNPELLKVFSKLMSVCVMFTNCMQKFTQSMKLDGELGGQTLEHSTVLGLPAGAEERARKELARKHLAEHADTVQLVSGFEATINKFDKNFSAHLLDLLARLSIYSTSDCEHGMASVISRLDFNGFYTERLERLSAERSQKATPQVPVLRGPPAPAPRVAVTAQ

T1 sequence (P23258 whole entry): as the sequence (P23258 whole entry, chain 1 of 2) above
T1 sequence (Q9BSJ2 whole entry): as the sequence (Q9BSJ2 whole entry, chain 2 of 2, further chain) above

cells arrested in mitosis 24 hours after transfection, MCF-7 [2] [%] | cells arrested in mitosis 24 hours after transfection, MDA-MB-231 [2] [%] | Substance | mitotic arrest (in words) ([1]; MCF-7 (low aggressiveness), live cell transfection) | share of cells receiving peptide that were arrested in mitosis ([1]; MCF-7, 24 h, value in brackets in FIG. 13G legend) [%] | cells arrested in mitosis ([1]; MCF-7, 24 h after transfection with 1 μg peptide, arrested peptide-positive cells as percentage of entire population, 12 fields at 200×) [%] | spindle formation by α-tubulin staining ([1]; MCF-7 cells arrested by peptide, live cell transfection) | mitotic arrest (in words) (MDA-MB-231 cells; MDA-MB-231 (high aggressiveness), live cell transfection) | share of cells receiving peptide that were arrested in mitosis (MDA-MB-231 cells; MDA-MB-231, 24 h, value in brackets in FIG. 13G legend) [%] | cells arrested in mitosis (MDA-MB-231 cells; MDA-MB-231, 24 h after transfection with 1 μg peptide, arrested peptide-positive cells as percentage of entire population, 12 fields at 200×) [%] | block of γ-TuRC microtubule nucleation (in words) (human γ-TuRC)
– | – | YSKFKESAAPQLKDLIGSGAEKDHEYSLQLQ (also: 6-His tag, end not given here) [PγTR, Kinesin-14 Pkl1 Tail peptide, γ-TuRC targeting and regulatory; used 6-His tagged] | can mitotically arrest both the MCF-7 low and MDA-MB-231 high aggressive cell lines with similar efficiency | 90 | 39 | No spindle formation | can mitotically arrest both the MCF-7 low and MDA-MB-231 high aggressive cell lines with similar efficiency | 82 | 22.6 | potent inhibitor of nucleation; also recorded: blocks the γ-TuRC MTOC nucleation
39 | 22.6 | 6-His tagged Kinesin-14 Tail peptide PγTR (γ-TuRC targeting and regulatory peptide) | – | – | – | – | – | – | – | –
